{"source": "patent US20030176316A1", "about": "“Methods for treatment of rheumatoid arthritis” (priority 2001, published 2003)", "key": {"[1]": {"target": "T1, GST-cGB-PDE5 fusion protein (cGMP binding sites of human PDE5A) (Homo sapiens, UniProt O76074)", "T1 construct": "made in house; host or cells: E. coli BL21 (DE3)", "test": "cGMP binding assay with GST-cGB-PDE5 fusion protein", "from_the_text": "RT-PCR method is used to obtain the cGB domain of PDE5 with forward and reverse primers designed from bovine PDE5A cDNA sequence (McAllister-Lucas L. M. et al., J Biol. Chem. 268, 22863-22873, 1993) and the selection among PDE 1-10 families. 5′-3′, Inc. kits for total RNA followed by oligo (dT) column purification of mRNA are used with HT-29 cells. […] It is then cloned into pGEX-5×-3 glutathione-S-transferase (GST) fusion vector (Pharmacia Biotech )with tac promoter, and EcoRI and XhoI cut sites. The fusion vector is then transfected into E. Coli BL21 (DE3) bacteria (Invitrogen). The transfected BL21 bacteria is grown to log phase, and then IPTG is added as an induce. The induction is carried at 20° C. for 24 hrs. The bacteria are harvested and lysed. The soluble cell lysate is incubated with GSH conjugated Sepharose 4B (GSH-Sepharose 4B). The GST-cGB-PDE5 fusion protein can bind to the GSH-Sepharose beads, and the other proteins are washed off from beads with excessive cold PBS.\nThen, the mixture is transferred to Brandel MB-24 cell harvester with GF/B as the filter membrane followed by 2 washes with 10 mL of cold 5 mM potassium buffer(pH 6.8). The membranes are then cut out and transferred to scintillation, vials followed by the addition of 1 mL of H2O and 6 mL of Ready Safe™ liquid scintillation cocktail to each vial. The vials are counted on a Beckman LS 6500 scintillation counter.\nThe quenching by filter membrane or other debris are also calibrated."}, "PDE 5": {"target": "PDE 5 (Homo sapiens, UniProt O76074)", "test": "competitive (with cGMP) binding to PDE5"}, "[2]": {"test": "long-term safety assessment study in rats, 91 days", "assay_type": "in vivo", "from_the_text": "These changes were not associated with any gross clinical abnormality."}, "U937 cells": {"tested_on": "U937 cells", "test": "apoptosis induction of U937 cells (active caspase 3, indirect immunofluorescence)", "assay_type": "cell-based", "settings": "24 hours", "procedure": "U937 cells (from ATCC Rockville, Md.) were grown in RPMI media supplemented with 5% FCS, glutamine, antibiotic/antimycotic and sodium pyruvate. Total RNA was isolated from two U937 cultures, one treated with 5nM TPA for 48 hours and one grown in normal media as listed above, using the Rouche High Pure RNA Isolation Kit (cat# 1 828 665) as per manufacturers protocol. cDNA was then synthesized from the total RNA using GibcoBRL Superscriptll (Cat# 18064-022) reverse transcriptase as per manufacturers protocol. The resulting cDNA was used as a template for RT-PCR reactions using primer sets specific for PDE2 (forward: […], reverse: […]) or PDE5 (forward: […], reverse: […]). mRNA for PDE2 and 5 were both present in the untreated U937 cells. Upon treatment with TPA, the relative amounts of PDE2 mRNA increased 5 fold. Therefore, U937 cells treated with TPA and driven to differentiate into an activated macrophage like state have elevated levels of PDE2 mRNA (see FIG. 1).\nThe presence of PDE2 and PDE5 protein within U937 cells was confirmed by indirect immunofluorescence (IIF). U937 cells were cultured as above. Two U937 cultures, one grown in the presence of 5 nM TPA for 48 hours and one grown in normal media were processed. All cultures were collected by centrifugation (Shandon Cytospin, 2 minutes @ 600 rpm) onto poly-L lysine-coated slides and immediately fixed in fresh 3% paraformaldehyde buffered in PBS for 10 minutes. Adherent cultures were grown on coverslips and fixed as above. Cells were permeablized in 0.2% triton-100 for 2 minutes. Slides were blocked with blocking buffer (5% goat serum, 5% glycerol, 1% gelatin from cold water fish skin and 0.04% NaN3 in PBS) for 1 hour at room temperature.\nSlides were then incubated for 1 hour at 37° C. in a humid chamber with antibodies specific for PDE2 (generated in a sheep against the peptide […]) or PDE5 (generated in sheep against the peptide […]). […]\nThe level of apoptosis in U937 cells was quantified by scoring 500 consecutive cells for the presence of active caspase 3. […]"}, "[3]": {"test": "91-day oral study in dogs", "assay_type": "in vivo", "settings": "91 days, highest dose group"}, "[4]": {"test": "seven-day dose-range finding study in rats", "assay_type": "in vivo", "settings": "seven days, 2000 mg/kg/day"}, "28-day study in rats": {"test": "28-day study in rats", "assay_type": "in vivo", "settings": "28 days, 50 and 500 mg/kg/day", "procedure": "A 28-day study in rats was also carried out at 0, 50, 500 and 2000 mg/kg/day."}}, "note": "Structures can show the parent of a compound that is named as a salt. Where two headings read alike, the source gives them in different places."}
{"smiles": "CCCCOC1C2OP(=O)(O)OCC2OC1n1cnc2c(N)ncnc21", "note": "(centres unmarked) [2′-O-butyl-cAMP]", "values": [{"measurement": "competition with cGMP in binding to the cGMP binding sites of GST-cGB-PDE5", "setting": "[1]; 3H-cGMP 2 μM, 22° C., 1 hour", "result": "did not compete with cGMP in binding"}]}
{"smiles": "CCCCOC1C2OP(=O)(O)OCC2OC1n1cnc2c(=O)[nH]c(N)nc21", "note": "(centres unmarked) [2′-O-butyl-cGMP]", "values": [{"measurement": "competition with cGMP in binding to the cGMP binding sites of GST-cGB-PDE5", "setting": "[1]; 3H-cGMP 2 μM, 22° C., 1 hour", "result": "did not compete with cGMP in binding"}]}
{"smiles": "Nc1ncnc2c1ncn2[C@@H]1O[C@@H]2COP(=O)(O)O[C@H]2[C@H]1O", "note": "[Cyclic AMP]", "values": [{"measurement": "competition with cGMP in binding to the cGMP binding sites of GST-cGB-PDE5", "setting": "[1]", "result": "did not compete with cGMP in binding"}]}
{"smiles": "CC1=C(CC(=O)NCc2ccccc2)c2cc(F)ccc2/C1=C\\c1ccncc1", "note": "[Example 38, (Z)-5-Fluoro-2-Methyl-(4-Pyridylidene)-3-(N-Benzyl) Indenylacetamide Hydrochloride]", "values": [{"measurement": "competitive (with cGMP) binding to PDE 5", "setting": "PDE 5", "result": "does competitively (with cGMP) bind to PDE 5"}, {"measurement": "clinical biochemistry and hematology", "setting": "[2]", "result": "no changes in clinical biochemistry and hematology were evident"}, {"measurement": "competition with cGMP in binding to the cGMP binding sites of GST-cGB-PDE5", "setting": "[1]; 3H-cGMP 2 μM, 22° C., 1 hour", "result": "does not bind to the cGMP-binding site of PDE5"}, {"measurement": "apoptosis, fluorescent image of active caspase 3 (FIG. 8)", "setting": "U937 cells; 1 μM", "result": "undergoing apoptosis as reflected by the presence of active caspase 3"}, {"measurement": "microscopic alterations of the liver", "setting": "[3]", "result": "no microscopic alterations"}, {"measurement": "effects", "setting": "[4]", "result": "labored breathing and/or abnormal respiratory sounds, decreased weights gains and food consumption ion male rats, and increased liver weights in female rats"}, {"measurement": "liver and thyroid weight increases at the lower doses", "setting": "28-day study in rats", "result": "not statistically significant"}]}
{"smiles": "Nc1ccn([C@@H]2O[C@@H]3COP(=O)(O)O[C@H]3[C@H]2O)c(=O)n1", "note": "[cCMP, cyclic CMP]", "values": [{"measurement": "competition with cGMP in binding to the cGMP binding sites of GST-cGB-PDE5", "setting": "[1]; 3H-cGMP 2 μM, 22° C., 1 hour", "result": "did not compete with cGMP in binding"}]}
{"smiles": "O=c1ccn([C@@H]2O[C@@H]3COP(=O)(O)O[C@H]3[C@H]2O)c(=O)[nH]1", "note": "[cUMP, cyclic UMP]", "values": [{"measurement": "competition with cGMP in binding to the cGMP binding sites of GST-cGB-PDE5", "setting": "[1]; 3H-cGMP 2 μM, 22° C., 1 hour", "result": "did not compete with cGMP in binding"}]}
{"smiles": "COc1ccc(C2CNC(=O)C2)cc1OC1CCCC1", "note": "(centres unmarked) [rolipram]", "values": [{"measurement": "levels of apoptosis (active caspase 3)", "setting": "U937 cells; 0.5 μM", "result": "No increase in the levels of apoptosis compared to normal background"}]}
{"smiles": "CCCc1nn(C)c2c(=O)[nH]c(-c3cc(S(=O)(=O)N4CCN(C)CC4)ccc3OCC)nc12", "note": "[sildenafil]", "values": [{"measurement": "levels of apoptosis (active caspase 3)", "setting": "U937 cells; 0.3 nM", "result": "No increase in the levels of apoptosis compared to normal background"}]}
